Source: the supplement of paper PMC10307832

Columns and labels:
Experiment in all cases: relative viability (nuclei count vs DMSO), 5 days (fraction); higher = more cells survive
Veliparib + Decitabine = compound: C[C@]1(c2nc3c(C(N)=O)cccc3[nH]2)CCCN1 [Veliparib] + Nc1ncn([C@H]2C[C@H](O)[C@@H](CO)O2)c(=O)n1 [Decitabine] (partner 2 µM)
How it was run: (§1)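 Lung cancer cell lines, seeded in 1536-well plates, were treated the following day by pin tool with a single drug or with five library-drug doses (not always all listed) in √10 steps on top of a fixed anchor-drug dose. Cells were fixed and nuclei stained in one step after 5 days, and nuclei were counted. Relative viability is the nuclei count for treated wells divided by that for vehicle wells, reported as medians of duplicate plates.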

Veliparib + Palbociclib = compound: C[C@]1(c2nc3c(C(N)=O)cccc3[nH]2)CCCN1 [Veliparib] + CC(=O)c1c(C)c2cnc(Nc3ccc(N4CCNCC4)cn3)nc2n(C2CCCC2)c1=O [Palbociclib] (partner 0.5 µM)
How it was run: as §1

[1] = compound: COC1=CC=C(C=C1)CN2C=CC3=C2C=C(C=C3)C(=O)NO + C[C@@H](Oc1cc(-c2cnn(C3CCNCC3)c2)cnc1N)c1c(Cl)ccc(F)c1Cl [Crizotinib] (partner 1 µM)
How it was run: as §1

[2] = compound: COC1=CC=C(C=C1)CN2C=CC3=C2C=C(C=C3)C(=O)NO + C[C@]1(O)C[C@@H](c2nc(-c3ccc4ccc(-c5ccccc5)nc4c3)c3c(N)nccn32)C1 [Linsitinib] (partner 1 µM)
How it was run: as §1

Cell Line | relative viability (Veliparib + Decitabine; first compound 0.02 µM) | relative viability (Veliparib + Decitabine; first compound 0.06325 µM) | relative viability (Veliparib + Decitabine; first compound 0.2 µM) | relative viability (Veliparib + Decitabine; first compound 0.6325 µM) | relative viability (Veliparib + Decitabine; first compound 2 µM) | relative viability (Veliparib + Palbociclib; first compound 0.02 µM) | relative viability (Veliparib + Palbociclib; first compound 0.06325 µM) | relative viability (Veliparib + Palbociclib; first compound 0.2 µM) | relative viability (Veliparib + Palbociclib; first compound 0.6325 µM) | relative viability (Veliparib + Palbociclib; first compound 2 µM) | relative viability ([1]; first compound 0.253 µM) | relative viability ([1]; first compound 0.8 µM) | relative viability ([1]; first compound 2.53 µM) | relative viability ([1]; first compound 8 µM) | relative viability ([2]; first compound 0.253 µM) | relative viability ([2]; first compound 0.8 µM) | relative viability ([2]; first compound 2.53 µM) | relative viability ([2]; first compound 8 µM) | relative viability ([1]; first compound 0.08 µM) | relative viability ([2]; first compound 0.08 µM)
LU99A | 1.01 | 0.875 | 0.932 | 0.825 | 0.866 | 0.495 | 0.399 | 0.418 | 0.381 | 0.451 | 0.573 | 0.541 | 0.562 | 0.553 | 0.581 | 0.533 | 0.552 | 0.569 |  | 
LXF-289 | 0.362 | 0.311 | 0.342 | 0.283 | 0.332 | 0.577 | 0.574 | 0.554 | 0.601 | 0.649 | 0.827 | 0.827 | 0.803 | 0.793 | 0.951 | 0.998 | 0.986 | 0.959 | 0.317 | 0.456
NCI-H23 | 0.318 | 0.289 | 0.306 | 0.296 | 0.334 | 0.546 | 0.428 | 0.445 | 0.486 | 0.516 | 0.708 | 0.445 | 0.343 | 0.401 | 0.619 | 0.564 | 0.599 | 0.544 | 0.481 | 0.406
NCI-H322M |  | 0.608 | 0.682 | 0.656 | 0.655 |  | 0.491 | 0.48 | 0.514 | 0.49 | 0.816 | 0.98 | 0.851 | 0.793 | 0.934 | 0.931 | 0.946 | 0.926 |  | 
NCI-H358 | 0.208 | 0.196 | 0.181 | 0.156 | 0.18 | 0.117 | 0.136 | 0.153 | 0.137 | 0.119 | 0.645 | 0.546 | 0.597 | 0.395 | 0.903 | 0.792 | 0.742 | 0.851 |  | 
NCI-H441 | 0.227 | 0.216 | 0.179 | 0.212 | 0.228 | 0.203 | 0.222 | 0.266 | 0.213 | 0.218 | 0.835 | 0.862 | 0.787 | 0.597 | 0.676 | 0.573 | 0.579 | 0.42 | 1.25 | 0.304
NCI-H460 | 0.407 | 0.255 | 0.203 | 0.212 | 0.132 | 0.147 | 0.092 | 0.11 | 0.121 | 0.131 | 0.959 | 0.846 | 0.882 | 0.917 | 0.879 | 0.714 | 0.705 | 0.776 | 0.774 | 0.553
NCI-H520 | 0.427 | 0.404 | 0.414 | 0.375 | 0.35 | 0.24 | 0.239 | 0.254 | 0.212 | 0.223 | 0.834 | 0.776 | 0.723 | 0.736 | 1.04 | 1.01 | 0.977 | 0.946 | 0.321 | 0.313
NCI-H647 | 0.376 | 0.346 | 0.298 | 0.299 | 0.26 | 0.392 | 0.325 | 0.425 | 0.423 | 0.469 | 1 | 1.04 | 0.914 | 1.01 | 1.01 | 1.2 | 1.28 | 1.02 | 0.868 | 0.886
NCI-H650 | 0.309 | 0.283 | 0.265 | 0.278 | 0.317 | 0.309 | 0.278 | 0.344 | 0.33 | 0.331 | 0.832 | 0.68 | 0.71 | 0.656 | 0.849 | 0.95 | 0.936 | 0.725 | 0.378 | 0.793
NCI-H661 | 0.555 | 0.545 | 0.481 | 0.424 | 0.443 | 0.382 | 0.41 | 0.4 | 0.371 | 0.384 | 0.814 | 1.08 | 1.05 | 1 | 0.525 | 0.555 | 0.521 | 0.46 |  | 
NCI-H727 | 0.865 | 0.758 | 0.856 | 0.706 | 0.865 | 0.7 | 0.689 | 0.624 | 0.661 | 0.605 | 0.945 | 0.98 | 0.71 | 0.592 | 0.355 | 0.298 | 0.256 | 0.298 | 0.578 | 0.214
NCI-H838 | 0.409 | 0.453 | 0.408 | 0.32 | 0.426 | 0.22 | 0.191 | 0.235 | 0.225 | 0.224 | 0.911 | 0.882 | 0.853 | 0.829 | 1.13 | 1.13 | 1.08 | 0.961 |  | 
NCI-H1355 | 0.388 | 0.29 | 0.371 | 0.328 | 0.325 | 0.305 | 0.396 | 0.375 | 0.417 | 0.402 | 1.2 | 1.02 | 1.12 | 0.977 | 0.826 | 0.812 | 0.895 | 0.809 | 0.913 | 0.792
NCI-H1437 | 0.606 | 0.526 | 0.464 | 0.533 | 0.497 | 0.304 | 0.323 | 0.281 | 0.362 | 0.335 | 0.961 | 0.993 | 0.989 | 0.939 | 1.1 | 1.01 | 1 | 1.13 | 0.661 | 0.847
NCI-H1651 | 0.549 | 0.43 | 0.348 | 0.358 | 0.32 | 0.513 | 0.497 | 0.52 | 0.499 | 0.485 | 0.928 | 0.859 | 0.82 | 0.826 | 1.01 | 1.08 | 0.869 | 0.716 | 0.853 | 0.939
